Data from patent US8268848B2, “Cyclopropane compound” (Eisai R&D Management Co., Ltd., priority 2010, dated 2012).
Read-outs that look alike come from different tables or passages of the source.

Columns and labels:
OX1 = target: T1, OX1 (Homo sapiens, UniProt O43613); experiment: Measurement of orexin receptor-binding ability ([125I]-OX-A, cell membranes, OX1); parameters: expressed in transfected cells; host or cells: CHO cells (membrane preparation)
T1 sequence (O43613 1-425): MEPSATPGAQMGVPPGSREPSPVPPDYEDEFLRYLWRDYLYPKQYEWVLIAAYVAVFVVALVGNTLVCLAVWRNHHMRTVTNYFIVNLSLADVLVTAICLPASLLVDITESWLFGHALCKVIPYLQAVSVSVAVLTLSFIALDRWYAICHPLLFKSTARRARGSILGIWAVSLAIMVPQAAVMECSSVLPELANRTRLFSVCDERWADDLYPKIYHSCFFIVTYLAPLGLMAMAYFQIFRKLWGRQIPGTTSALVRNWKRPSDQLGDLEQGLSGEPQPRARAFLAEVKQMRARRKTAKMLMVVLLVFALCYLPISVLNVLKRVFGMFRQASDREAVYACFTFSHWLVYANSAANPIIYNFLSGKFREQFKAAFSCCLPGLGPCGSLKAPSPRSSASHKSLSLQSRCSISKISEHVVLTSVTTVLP
Protocol: (§1) 1. Measurement of Orexin Receptor-Binding Ability
(§2) The assay was carried out using a 96-well Wheat Germ Agglutinin Flash Plate (PerkinElmer). The volume in a single assay well was 100 ul, and the composition of the reaction solution was as follows:
(§3) 25 mM HEPES (pH 7.5), 1 mM CaCl2, 4.5 mM MgCl2, 0.5% BSA (bovine serum albumin), 0.1% sodium azide, 0.05% Tween-20, and 0.2% DMSO.
(§4) Cell membranes were prepared from recombinant CHO cells that expressed OX2 or OX1. The cell membranes were used in an amount of 5 μg protein/assay. […] Finally, the radioactivity of each well was measured using a scintillation counter (TopCount, PerkinElmer).

OX2 = target: T2, OX2 (Homo sapiens, UniProt O43614); experiment: Measurement of orexin receptor-binding ability ([125I]-OX-A, cell membranes, OX2); parameters: expressed in transfected cells; host or cells: CHO cells (membrane preparation); conditions: membranes of recombinant CHO cells expressing OX2, 0.2 nM [125I]-OX-A
T2 sequence (O43614 1-444): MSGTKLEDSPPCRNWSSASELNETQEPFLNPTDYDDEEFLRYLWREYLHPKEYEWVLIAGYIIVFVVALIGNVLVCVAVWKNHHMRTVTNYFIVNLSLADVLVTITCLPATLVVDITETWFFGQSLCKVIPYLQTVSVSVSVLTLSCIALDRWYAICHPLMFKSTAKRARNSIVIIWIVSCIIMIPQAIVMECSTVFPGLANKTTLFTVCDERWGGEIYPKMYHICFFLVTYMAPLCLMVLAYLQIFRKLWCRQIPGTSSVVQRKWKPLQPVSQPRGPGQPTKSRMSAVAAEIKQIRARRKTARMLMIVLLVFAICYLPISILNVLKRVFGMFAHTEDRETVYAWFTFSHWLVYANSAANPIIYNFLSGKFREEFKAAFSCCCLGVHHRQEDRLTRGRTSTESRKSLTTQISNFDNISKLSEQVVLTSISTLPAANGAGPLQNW
Protocol: as §1, §2, §3, §4

[1] = membranes of recombinant CHO cells expressing OX1, 0.2 nM [125I]-OX-A, read-out: OX1 (IC50)

Structure (SMILES) | IC50 (OX1; [1]) [nM] | IC50 (OX2; read-out: OX2 (IC50)) [nM] | IC50 (OX1) [nM] | IC50 (OX2; OX2 (IC50) nM) [nM]
Cc1ncc(OC[C@@]2(c3cccc(F)c3)C[C@H]2c2nc3ccc(Cl)cc3c(=O)[nH]2)c(C)n1 [Example 311] | 23 | 3.1 | – | –
Cc1ccc(C2(COc3cnc(C)nc3C)CC2C(=O)Nc2ccc(Cl)cn2)cc1 (stereo not shown) [Example 175] | – | – | 62 | 35
Cc1ncc(OC[C@@]2(c3ccccc3)C[C@H]2C(=O)Nc2ncc(C)s2)c(C)n1 [Example 2] | 296 | 19 | – | –
Cc1ncc(OC[C@@]2(c3ccccc3)C[C@H]2C(=O)Nc2ccc(F)cc2)c(C)n1 [Example 77, (1R,2S)-2-{[(2,4-dimethylpyrimidin-5-yl)oxy]methyl}-N-(4-fluorophenyl)-2-phenylcyclopropanecarboxamide] | 41 | 24 | – | –
Cc1ncc(OCC2(c3ccc(F)cc3)CC2C(=O)Nc2ccc(C#N)cn2)c(C)n1 (stereo not shown) [Example 101] | 290 | 84 | – | –
CCc1nc(C)ncc1OC[C@@]1(c2cccc(F)c2)C[C@H]1C(=O)Nc1ccc(F)cc1 [Example 316, (1R,2S)-2-{[(4-ethyl-2-methylpyrimidin-5-yl)oxy]methyl}-2-(3-fluorophenyl)-N-(4-fluorophenyl)cyclopropanecarboxamide] | 7 | 1.1 | – | –
Cc1ncc(OC[C@@]2(c3ccccc3)C[C@H]2C(=O)Nc2ccc(F)c(F)c2)c(C)n1 [Example 30] | 78 | 12 | – | –
Cc1ncc(OC[C@@]2(c3ccccc3)C[C@H]2C(=O)Nc2nc(C)c(C)s2)c(C)n1 [Example 4] | 55 | 38 | – | –
Cc1nc(C)[n+]([O-])cc1OC[C@@]1(c2cccc(F)c2)C[C@H]1C(=O)Nc1ccc(F)cn1 [Example 284] | – | – | 112 | 6
COCc1nc(C)ncc1OC[C@@]1(c2cccc(F)c2)C[C@H]1C(=O)Nc1ccc(C(F)(F)F)cn1 [Example 201, (1R,2S)-2-(3-fluorophenyl)-2-{[(4-methoxymethyl-2-methylpyrimidin-5-yl)oxy]methyl}-N-[5-(trifluoromethyl)pyridin-2-yl]cyclopropanecarboxamide] | – | – | 5 | 4
Cc1ncc(OCC2(c3ccc(Cl)cc3)CC2C(=O)Nc2ccc(C#N)cn2)c(C)n1 (stereo not shown) [Example 159] | 624 | 62 | – | –
Cc1ncc(N(C)C[C@@]2(c3cccc(F)c3)C[C@H]2C(=O)Nc2ccc(F)cc2)c(C)n1 [Example 294] | > 200 | 14 | – | –
COc1cccc(NC(=O)[C@@H]2C[C@@]2(COc2cnc(C)nc2C)c2ccccc2)c1 [Example 36, (1R,2S)-2-{[(2,4-dimethylpyrimidin-5-yl)oxy]methyl}-N-(3-methoxyphenyl)-2-phenylcyclopropanecarboxamide] | 9 | 3 | – | –
Cc1ncc(OC[C@@]2(c3ccccc3)C[C@H]2C(=O)Nc2cc(F)cc(F)c2)c(C)n1 [Example 31] | 222 | 26 | – | –
Cc1ncc(OC[C@@]2(c3cccc(F)c3)C[C@H]2C(=O)Nc2ccccc2)c(C)n1 [Example 93, (1R,2S)-2-{[(2,4-dimethylpyrimidin-5-yl)oxy]methyl}-2-(3-fluorophenyl)-N-phenylcyclopropanecarboxamide] | – | – | 54 | 9
Cc1ncc(OC[C@@]2(c3ccccc3)C[C@H]2C(=O)Nc2cccc(N(C)C)c2)c(C)n1 [Example 19, (1R,2S)-N-[3-(dimethylamino)phenyl]-2-{[(2,4-dimethylpyrimidin-5-yl)oxy]methyl}-2-phenylcyclopropanecarboxamide] | 93 | 10 | – | –
Cc1ncc(OC[C@@]2(c3cccc(C#N)c3)C[C@H]2C(=O)Nc2cc(C)c(F)cn2)c(C)n1 [Example 117, (1R,2S)-2-(3-cyanophenyl)-2-{[(2,4-dimethylpyrimidin-5-yl)oxy]methyl}-N-(5-fluoro-4-methylpyridin-2-yl)cyclopropanecarboxamide] | 19 | 4 | – | –
Cc1ncc(OC[C@@]2(c3cc(F)cc(F)c3)C[C@H]2C(=O)Nc2ccccn2)c(C)n1 [Example 131, (1R,2S)-2-(3,5-difluorophenyl)-2-{[(2,4-dimethylpyrimidin-5-yl)oxy]methyl}-N-(pyridin-2-yl)cyclopropanecarboxamide] | – | – | 89 | 5
COCc1nc(C)ncc1OC[C@@]1(c2cccc(F)c2)C[C@H]1C(=O)Nc1ccc(F)cc1F [Example 196, (1R,2S)-N-(2,4-difluorophenyl)-2-(3-fluorophenyl)-2-{[(4-methoxymethyl-2-methylpyrimidin-5-yl)oxy]methyl}cyclopropanecarboxamide] | 9 | 4 | – | –

Structure (SMILES) | IC50 (OX1; [1]) [nM] | IC50 (OX2; read-out: OX2 (IC50)) [nM] | IC50 (OX1) [nM] | IC50 (OX2; OX2 (IC50) nM) [nM]
CCc1nc(C)ncc1OC[C@@]1(c2ccccc2)C[C@H]1C(=O)Nc1cc(C)c(F)cn1 [Example 122] | < 20 | 7 | – | –
Cc1ncc(OC[C@@]2(c3ccccc3)C[C@H]2C(=O)Nc2ccc(Cl)cc2)c(C)n1 [Example 25] | 927 | 59 | – | –
Cc1ncc(OCC2(c3ccc(F)cc3)CC2C(=O)Nc2cccnc2)c(C)n1 (stereo not shown) [Example 103] | 2940 | 96 | – | –
COc1ccccc1C1(COc2cnc(C)nc2C)CC1C(=O)Nc1cccnc1 (stereo not shown) [Example 126] | 100 | 107 | – | –
Cc1ncc(OC[C@@]2(c3ccccc3)C[C@H]2C(=O)Nc2cc(C(F)F)ccn2)c(C)n1 [Example 15] | – | – | 213 | 41
Cc1ncc(OC[C@@]2(c3ccccc3)C[C@H]2C(=O)Nc2ccc(F)c(Cl)c2)c(C)n1 [Example 32, (1R,2S)-N-(3-chloro-4-fluorophenyl)-2-{[(2,4-dimethylpyrimidin-5-yl)oxy]methyl}-2-phenylcyclopropanecarboxamide] | 15 | 3.5 | – | –
Cc1ncc(OC[C@@]2(c3ccc(F)c(F)c3)C[C@H]2C(=O)Nc2ccc(F)cn2)c(C)n1 [Example 169, (1R,2S)-2-(3,4-difluorophenyl)-2-{[(2,4-dimethylpyrimidin-5-yl)oxy]methyl}-N-(5-fluoropyridin-2-yl)cyclopropanecarboxamide] | – | – | 14 | 4
COCc1nc(C)ncc1OC[C@@]1(c2ccc(F)cc2)C[C@H]1C(=O)Nc1ccc(Cl)cn1 [Example 204, (1R,2S)-N-(5-chloropyridin-2-yl)-2-(4-fluorophenyl)-2-{[(4-methoxymethyl-2-methylpyrimidin-5-yl)oxy]methyl}cyclopropanecarboxamide] | 22 | 5 | – | –
Cc1ncc(OCC2(c3ccccc3C)CC2C(=O)Nc2ccc(C#N)cn2)c(C)n1 (stereo not shown) [Example 178] | – | – | 769 | –
COCc1nc(C)ncc1OC[C@@]1(c2cccc(F)c2)C[C@H]1C(=O)Nc1cc(F)ccc1F [Example 197, (1R,2S)-N-(2,5-difluorophenyl)-2-(3-fluorophenyl)-2-{[(4-methoxymethyl-2-methylpyrimidin-5-yl)oxy]methyl}cyclopropanecarboxamide] | – | 7 | – | –
CCc1nc(C)ncc1OC[C@@]1(c2cccc(F)c2)C[C@H]1c1nc2cnccc2[nH]1 [Example 309] | – | 10 | – | –
Cc1ncc(OC[C@@]2(c3ccc(F)cc3)C[C@H]2C(=O)Nc2ccc(F)c(F)c2)c(C)n1 [Example 106] | – | 19 | – | –
COCc1nc(C)ncc1OC[C@@]1(c2ccc(F)cc2)C[C@H]1C(=O)Nc1cccc(F)c1 [Example 208] | – | 11 | – | –
COCc1nc(C)ncc1OC[C@@]1(c2ccccc2)C[C@H]1C(=O)Nc1ccc(C(F)(F)F)cn1 [Example 144] | – | 12 | – | –
Cc1ncc(OC[C@@]2(c3cccc(F)c3)C[C@H]2C(=O)Nc2cccc(F)c2)c(C)n1 [Example 83] | – | – | – | 14
COCc1nc(C)ncc1OC[C@@]1(c2ccc(F)cc2)C[C@H]1C(=O)Nc1ccc(F)cc1F [Example 209] | – | 48 | – | –
COCc1nc(C)ncc1OCC1(c2cccc(Cl)c2)CC1C(=O)Nc1ccc(Cl)cn1 (stereo not shown) [Example 223] | – | 34 | – | –
Cc1ncc(OC[C@@]2(c3ccc(F)c(F)c3)C[C@H]2C(=O)Nc2cc(F)ccc2F)c(C)n1 [Example 172] | – | 28 | – | –
